Source: patent EP3061351B1, “Food product for young subjects” (Dopharma Research B.V., priority 2015, dated 2016)

What was measured:
[1] = system: Caco-2 cells; assay: Interleukin-8 production of DON-challenged Caco-2 cells (ELISA); type: cell-based; settings: apical side, 24 h incubation with 4.2 µM DON, digests 1:100 added 2 hours before DON
Experimental: (§1) Caco-2 cells were cultured in minimal essential media (MEM), supplemented with 10% FBS, 1% non essential amino acids (NEAA), 1% pyruvate, penicillin (100 U/mL) and streptomycin (100 µg/mL), all from Gibco (Life Technologies Europe, Bleiswijk, The Netherlands). Experiments with Caco-2 cells were conducted with cells grown on sterile 0.3 cm2 transwell with 0.4 µm pore polyester membrane inserts placed in a 24-well plate (Corning, Sigma-Aldrich, The Netherlands), if not stated otherwise. The cells were seeded at a density of 1 * 10^5 cells per insert. The cell culture plates were incubated at 37°C, in a humidified atmosphere with 5% CO2. […] The cell culture was regularly tested and found to be free of mycoplasma contamination.
Caco-2 and IPEC-J2 cells were grown on inserts and in 12 well plates respectively. Confluent layers of cells were incubated with 1:100 dilutions of digests 2 hours prior to addition of DON. Cells were then incubated in the presence of both digests and DON for 24 hours prior to analysis. TEER was measured as described above. Interleukin-8 (IL-8) was analyzed using porcine CXCL8/IL-8 DuoSet ELISA kit (DY535, R&D systems Abbingdon, UK) according to the manufacturer's protocol. Apical an basolateral supernatant of transwell plates were used for analysis. Samples were diluted ten times in PBS. […]

[2] = system: IPEC-J2 cells; assay: MTT assay, cytotoxicity of DON; type: cell-based, porcine; settings: 4.2 µM DON, confirmation of the literature, data not shown
Experimental: Intestinal porcine epithelial cells (IPEC-J2 passages 83 - 87) were a kind gift from prof. R. Pieters (IRAS, Utrecht University, The Netherlands). IPEC-J2 cells were cultured in 25 cm^2 cell culture flasks (Greiner Bio-One, Alphen a/d Rijn, The Netherlands) in Dulbecco's modified Eagle's medium (DMEM)/ Ham's F12 supplemented with 10% fetal bovine serum, penicillin (100 U/mL) and streptomycin (100 µg/mL) (Gibco, Life Technologies Europe, Bleiswijk, The Netherlands). IPEC-J2 cells were used for MTT analysis.
To confirm lack of cytotoxicity at 4.2 µM of DON as published previously by Akbari et al. (The FASEB Journal […]; 28, 2414-2429), an MTT assay using IPEC-J2 cells was performed in a 96-well plate. The MTT assay assesses cell viability by analyzing the capability of cells to reduce the tetrazolium dye MTT (3-(4,5-dimethylthiazol-2-yl)-2.5-diphenyltetrazolium bromide, Sigma Aldrich, Zwijndrecht, The Netherlands) into the purple colored formazan. Using colorimetric analysis, the cell viability is quantified. For the MTT assay, a 5 mg/ml MTT-stock was prepared in PBS and this was diluted six times in 10% FBS in medium. Supernatant was aspirated and cells were incubated with 100 µl of the MTT solution. This was incubated for 3 hours in the incubator. […] Plate was shaken at low intensity for ten minutes and absorption at 560 nm was measured using spectrophotometer (Fluostar Omega, BMG Labtech).

[3] = concentration of 4.2 µM, Akbari et al.; cited from earlier work
[4] = 4.2 µM for 24 hours, Akbari et al.; cited from earlier work
[5] = system: Caco-2 cells; assay: TEER measurements of Caco-2 monolayer challenged with DON; type: cell-based; settings: 4.2 µM DON, 24 hours
Experimental: as §1
Caco-2 cells were cultured as described above. The integrity of the monolayer was evaluated on a regular basis using the first two 24-well plates during 21 days. To avoid contamination, in the next well plates, TEER was only measured right before the start of the experiment. On average, TEER values for untreated cells were 550 ± 24 Ω˙cm2. […]
Caco-2 and IPEC-J2 cells were grown on inserts and in 12 well plates respectively. […] TEER was measured as described above. Interleukin-8 (IL-8) was analyzed using porcine CXCL8/IL-8 DuoSet ELISA kit (DY535, R&D systems Abbingdon, UK) according to the manufacturer's protocol. […]

[6] = system: streptococci; settings: among naturally present medium and long chain free fatty acids, Kabara et al. 1972; cited from earlier work

Compound	IL8 production [1]	cytotoxicity (MTT assay) [2]	direct cytotoxicity [3]	TEER reduction [4]	TEER decrease as compared to control [5]	activity against streptococci [6]
CC1=C[C@H]2O[C@@H]3[C@H](O)C[C@](C)([C@@]2(CO)[C@H](O)C1=O)[C@]31CO1 [DON, Deoxynivalenol]	121.7 pg/mL	not cytotoxic	not cytotoxic	~80%	15%	–
CCCCCCCCCCCC(=O)O [lauric acid]	–	–	–	–	–	among the most active free fatty acids
CCCCCC/C=C\CCCCCCCC(=O)O [palmitoleic acid]	–	–	–	–	–	among the most active free fatty acids
